Results taken from patent publication US20230085307A1, “PYRIDAZINONE COMPOUND AND HERBICIDE” (NISSAN CHEMICAL CORPORATION, priority 2019, published 2023).

Assays:
persian speedwell [1] = assay: Test Example 4: herbicidal effect by soil treatment (Table 19, symbol R); assay type: in vivo, Persian speedwell (Veronica persica); settings: amount of applied herbicide 320 g/ha
How it was run: (§1)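 Applied as a water-diluted emulsion, the compound was sprayed onto soil covering newly sown seeds. Evaluation came three weeks after application, in a greenhouse held at 25° C. to 30° C.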

windgrass [2] = assay: Test Example 5: herbicidal effect by foliage application, plastic box (Table 20, symbol L); assay type: in vivo, windgrass (Apera spica-venti); settings: foliage application, 320 g/ha, three weeks after application
How it was run: (§2)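 Sow seeds spot-wise in sterilized diluvial soil; cover with ~1.5 cm soil. Grow 14 days in greenhouse, 25° C. to 30° C. Spray foliage with emulsion diluted to predetermined amount. Rate effect after 3 weeks.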

windgrass [3] = assay: Test Example 4: herbicidal effect by soil treatment (Table 19, symbol L); assay type: in vivo, windgrass (Apera spica-venti); settings: amount of applied herbicide 320 g/ha
How it was run: as §1

green foxtail = assay: Test Example 5: herbicidal effect by foliage application, plastic box (Table 20, symbol G); assay type: in vivo, green foxtail (Setaria viridis); settings: foliage application, 320 g/ha, three weeks after application
How it was run: as §2

Chinese sprangletop = assay: Test Example 3: herbicidal effect by foliage application, Wagner pot (Table 18, symbol D); assay type: in vivo, chinese sprangletop (Leptochloa chinensis); settings: for herbicidal effect on D: Chinese sprangletop: amount of applied herbicide 320 g/ha; for herbicidal effect on Chinese sprangletop (D): 320 g/ha
How it was run: (§3)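 Plants were sown in alluvial soil held under 0.1–0.5 cm standing water and grown 14 days in a greenhouse at 25–30 °C. An emulsifiable formulation, water-diluted to the set dose, was then sprayed onto the foliage, and effects were scored three weeks later using previously defined criteria.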

lambsquarters [4] = assay: Test Example 4: herbicidal effect by soil treatment (Table 19, symbol O); assay type: in vivo, lambsquarters (Chenopodium album); settings: amount of applied herbicide 320 g/ha
How it was run: as §1

barnyard grass [5] = assay: Test Example 4: herbicidal effect by soil treatment (Table 19, symbol H); assay type: in vivo, barnyard grass (Echinochloa crus-galli); settings: amount of applied herbicide 320 g/ha
How it was run: as §1

late watergrass = assay: Test Example 1: herbicidal activity, application before weed generation under submerged conditions (Table 16, symbol A); assay type: in vivo, late watergrass (Echinochloa oryzicola); settings: amount of applied herbicide 320 g/ha
How it was run: (§4)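 Alluvial soil was flooded to 4 cm depth, weed seeds were sown mixed and 2.5-leaf rice seedlings were transplanted. On sowing day, the compound's emulsion, diluted in water to a set dose, was applied to the water surface. Plants grew at 25–30 °C and were scored 0–5 after three weeks.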

persian speedwell [6] = assay: Test Example 5: herbicidal effect by foliage application, plastic box (Table 20, symbol R); assay type: in vivo, Persian speedwell (Veronica persica); settings: foliage application, 320 g/ha, three weeks after application
How it was run: as §2

Italian ryegrass [7] = assay: Test Example 4: herbicidal effect by soil treatment (Table 19, symbol K); assay type: in vivo, Italian ryegrass (Lolium multiflorum); settings: amount of applied herbicide 320 g/ha
How it was run: as §1

Italian ryegrass [8] = assay: Test Example 5: herbicidal effect by foliage application, plastic box (Table 20, symbol K); assay type: in vivo, Italian ryegrass (Lolium multiflorum); settings: foliage application, 320 g/ha, three weeks after application
How it was run: as §2

velvetleaf = assay: Test Example 5: herbicidal effect by foliage application, plastic box (Table 20, symbol M); assay type: in vivo, velvetleaf (Abutilon theophrasti); settings: foliage application, 320 g/ha, three weeks after application
How it was run: as §2

southern crabgrass = assay: Test Example 5: herbicidal effect by foliage application, plastic box (Table 20, symbol F); assay type: in vivo, southern crabgrass (Digitaria ciliaris); settings: foliage application, 320 g/ha, three weeks after application
How it was run: as §2

lambsquarters [9] = assay: Test Example 5: herbicidal effect by foliage application, plastic box (Table 20, symbol O); assay type: in vivo, lambsquarters (Chenopodium album); settings: foliage application, 320 g/ha, three weeks after application
How it was run: as §2

barnyard grass [10] = assay: Test Example 3: herbicidal effect by foliage application, Wagner pot (Table 18, symbol H); assay type: in vivo, barnyard grass (Echinochloa crus-galli); settings: for herbicidal effect on H: barnyard grass: amount of applied herbicide 320 g/ha; for herbicidal effect on barnyard grass (H): 320 g/ha
How it was run: as §3

oval-leafed pondweed = assay: Test Example 1: herbicidal activity, application before weed generation under submerged conditions (Table 16, symbol C); assay type: in vivo, oval-leafed pondweed (Monochoria vaginalis); settings: amount of applied herbicide 320 g/ha
How it was run: as §4

Compound | L: windgrass, herbicidal effect grade (windgrass [2]) | G: green foxtail, herbicidal effect grade (green foxtail) | herbicidal effect on D: Chinese sprangletop (Chinese sprangletop) | Herbicidal effect, A: late watergrass (late watergrass) | R: persian speedwell, herbicidal effect grade (persian speedwell [6]) | K: Italian ryegrass, herbicidal effect grade (Italian ryegrass [8]) | M: velvetleaf, herbicidal effect grade (velvetleaf) | F: southern crabgrass, herbicidal effect grade (southern crabgrass) | O: lambsquarters, herbicidal effect grade (lambsquarters [9]) | herbicidal effect on H: barnyard grass (barnyard grass [10]) | Herbicidal effect, C: oval-leafed pondweed (oval-leafed pondweed) | R: persian speedwell, herbicidal effect grade (persian speedwell [1]) | L: windgrass, herbicidal effect grade (windgrass [3]) | O: lambsquarters, herbicidal effect grade (lambsquarters [4]) | H: barnyard grass, herbicidal effect grade (barnyard grass [5]) | K: Italian ryegrass, herbicidal effect grade (Italian ryegrass [7]) | herbicidal effect on Chinese sprangletop (D) (Chinese sprangletop) | herbicidal effect on barnyard grass (H) (barnyard grass [10]) | further results
COc1ccccc1-c1sc2cc(F)ccc2c1-c1c(OC(=O)c2ccco2)c(C)nn(C)c1=O [3-023] | 5 (Herbicidal rate of 90% or more (almost completely withered)) | 5 (Herbicidal rate of 90% or more (almost completely withered)) | 3 (Herbicidal rate of 40% or more and less than 70%) | 3 (Herbicidal rate of 40% or more and less than 70%) | 3 (Herbicidal rate of 40% or more and less than 70%) | 5 (Herbicidal rate of 90% or more (almost completely withered)) | 5 (Herbicidal rate of 90% or more (almost completely withered)) | 3 (Herbicidal rate of 40% or more and less than 70%) | 3 (Herbicidal rate of 40% or more and less than 70%) | 5 (Herbicidal rate of 90% or more (almost completely withered)) | 4 (Herbicidal rate of 70% or more and less than 90%) |  |  |  |  |  |  |  | herbicidal effect, R: persian speedwell (persian speedwell [1]): 4 (Herbicidal rate of 70% or more and less than 90%); herbicidal effect, L: windgrass (windgrass [3]): 3 (Herbicidal rate of 40% or more and less than 70%); herbicidal effect, O: lambsquarters (lambsquarters [4]): 2 (Herbicidal rate of 20% or more and less than 40%); herbicidal effect, H: barnyard grass (barnyard grass [5]): 4 (Herbicidal rate of 70% or more and less than 90%); herbicidal effect, K: Italian ryegrass (Italian ryegrass [7]): 5 (Herbicidal rate of 90% or more (almost completely withered))
COc1ccccc1-c1sc2cc(F)ccc2c1-c1c(OS(=O)(=O)c2ccc(C)cc2)c(C)nn(C)c1=O [3-027] | 5 (Herbicidal rate of 90% or more (almost completely withered)) | 5 (Herbicidal rate of 90% or more (almost completely withered)) | 3 (Herbicidal rate of 40% or more and less than 70%) | 2 (Herbicidal rate of 20% or more and less than 40%) | 0 (Herbicidal rate of 5% or less (almost no effect)) | 3 (Herbicidal rate of 40% or more and less than 70%) | 5 (Herbicidal rate of 90% or more (almost completely withered)) | 3 (Herbicidal rate of 40% or more and less than 70%) | 3 (Herbicidal rate of 40% or more and less than 70%) | 5 (Herbicidal rate of 90% or more (almost completely withered)) | 5 (Herbicidal rate of 90% or more (almost completely withered)) | 0 (Herbicidal rate of 5% or less (almost no effect)) | 0 (Herbicidal rate of 5% or less (almost no effect)) | 0 (Herbicidal rate of 5% or less (almost no effect)) | 0 (Herbicidal rate of 5% or less (almost no effect)) | 0 (Herbicidal rate of 5% or less (almost no effect)) |  |  | 
COc1ccccc1-c1sc2cc(F)ccc2c1-c1c(OS(=O)(=O)N(C)C)c(C)nn(C)c1=O [3-028] | 5 (Herbicidal rate of 90% or more (almost completely withered)) | 4 (Herbicidal rate of 70% or more and less than 90%) | 3 (Herbicidal rate of 40% or more and less than 70%) | 2 (Herbicidal rate of 20% or more and less than 40%) | 0 (Herbicidal rate of 5% or less (almost no effect)) | 4 (Herbicidal rate of 70% or more and less than 90%) | 4 (Herbicidal rate of 70% or more and less than 90%) | 3 (Herbicidal rate of 40% or more and less than 70%) | 2 (Herbicidal rate of 20% or more and less than 40%) | 4 (Herbicidal rate of 70% or more and less than 90%) | 0 (Herbicidal rate of 5% or less (almost no effect)) | 0 (Herbicidal rate of 5% or less (almost no effect)) | 3 (Herbicidal rate of 40% or more and less than 70%) | 0 (Herbicidal rate of 5% or less (almost no effect)) | 0 (Herbicidal rate of 5% or less (almost no effect)) | 0 (Herbicidal rate of 5% or less (almost no effect)) |  |  | 
CCCC(=O)Oc1c(C)nn(C)c(=O)c1-c1c(-c2ccc(Cl)cc2)sc2cc(Cl)ccc12 [3-034] | 5 (Herbicidal rate of 90% or more (almost completely withered)) | 4 (Herbicidal rate of 70% or more and less than 90%) |  | 3 (Herbicidal rate of 40% or more and less than 70%) | 5 (Herbicidal rate of 90% or more (almost completely withered)) | 4 (Herbicidal rate of 70% or more and less than 90%) | 4 (Herbicidal rate of 70% or more and less than 90%) | 3 (Herbicidal rate of 40% or more and less than 70%) | 4 (Herbicidal rate of 70% or more and less than 90%) |  | 3 (Herbicidal rate of 40% or more and less than 70%) | 4 (Herbicidal rate of 70% or more and less than 90%) | 0 (Herbicidal rate of 5% or less (almost no effect)) | 0 (Herbicidal rate of 5% or less (almost no effect)) | 0 (Herbicidal rate of 5% or less (almost no effect)) | 1 (Herbicidal rate of 5% or more and less than 20%) | 4 (Herbicidal rate of 70% or more and less than 90%) | 5 (Herbicidal rate of 90% or more (almost completely withered)) | 
CCOc1ccccc1-c1sc2cc(Cl)ccc2c1-c1c(O)c(C)nn(C)c1=O [3-039] | 4 (Herbicidal rate of 70% or more and less than 90%) | 5 (Herbicidal rate of 90% or more (almost completely withered)) |  | 2 (Herbicidal rate of 20% or more and less than 40%) | 5 (Herbicidal rate of 90% or more (almost completely withered)) | 4 (Herbicidal rate of 70% or more and less than 90%) | 5 (Herbicidal rate of 90% or more (almost completely withered)) | 5 (Herbicidal rate of 90% or more (almost completely withered)) | 3 (Herbicidal rate of 40% or more and less than 70%) |  | 0 (Herbicidal rate of 5% or less (almost no effect)) | 5 (Herbicidal rate of 90% or more (almost completely withered)) | 0 (Herbicidal rate of 5% or less (almost no effect)) | 3 (Herbicidal rate of 40% or more and less than 70%) | 4 (Herbicidal rate of 70% or more and less than 90%) | 0 (Herbicidal rate of 5% or less (almost no effect)) | 3 (Herbicidal rate of 40% or more and less than 70%) | 4 (Herbicidal rate of 70% or more and less than 90%) | 
